The record followed here is publication PMC7696940, “Effects of Rationally Designed Physico-Chemical Variants of the Peptide PuroA on Biocidal Activity towards Bacterial and Mammalian Cells” (International Journal of Molecular Sciences, 2020).

Where no end group is shown, it is not given here.

One data set deals with E. coli ATCC25922. The data set is classed as cell-based, Escherichia coli. To be noted: MHB. How it is done: (§1) The activity of peptides was determined against the Gram-positive Staphylococcus aureus (ATCC 25923), and the Gram-negative Escherichia coli (ATCC 25922) and Pseudomonas aeruginosa (ATCC 9027) bacteria. Selected peptides were also tested against two clinical isolates of methicillin-resistant Staphylococcus aureus (MRSA), M173525 and M180920, kindly provided by Dr P. B. Ward (Microbiology Department, Austin and Repatriation Medical Centre, Heidelberg West, Victoria, Australia). The Minimum inhibitory concentration (MIC) of peptides was determined by the microtitre broth dilution method, as described in Phillips et al.. Briefly, bacteria were grown in Mueller-Hinton Broth (MHB) at 37 °C overnight with shaking (200 rpm). The cultures were adjusted to 0.5 McFarland turbidity standard (approximately 1 × 10^8 colony forming units (CFU)/mL), then diluted 1:100 in MHB (1 × 10^6 CFU/mL). A total of 75 μL of these suspensions were mixed with 25 μL of peptide solutions (final concentrations 250 to 0.5 μg/mL) and the microtitre plates incubated overnight at 37 °C. Positive growth controls (inoculum and MHB, with no peptide) and sterility controls (0.01% glacial acetic) were also included. Post-incubations, the absorbance of cultures at 595 nm was measured using a microplate reader (POLARstar Omega, Germany). […] To evaluate salt sensitivity of peptides up to physiological levels (150 mM NaCl), overnight cultures of S. aureus and E. coli adjusted to 0.5 McFarland turbidity standard were diluted 1:100 in MHB containing 0, 50, 100 or 150 mM NaCl, and the MICs of peptides determined as above. All tests were conducted in triplicate. The results are shown as the mode of values obtained.

The test system of the next data set is S. aureus ATCC25923. In kind it is cell-based, Staphylococcus aureus. As to conditions: MHB. On the procedure:
as §1

A further data set concerns P. aeruginosa ATCC9027. The data set is classed as cell-based, Pseudomonas aeruginosa. As to conditions: MHB, 37 °C overnight, A595; mode of three independent experiments. How it is done: as §1
A further data set concerns C. albicans FRR 5580. In kind it is cell-based, Candida albicans. To be noted: PDB, overnight; mode of three independent experiments. On the procedure:
The assay was carried out as per Alfred et al.. Candida albicans (FRR 5580) was grown in potato dextrose broth (PDB; Difco-BD, Bergen County, NJ, USA) overnight at 30 °C with shaking (200 rpm) until exponential phase, then adjusted to 0.5 McFarland turbidity standard (approximately 1 × 10^6 cells/mL) and diluted 1:200 with PDB to 0.5 − 2 × 10^3 cells/mL. Peptides in 25 μL volumes were mixed with 75 μL of the yeast suspensions. The controls were included as above. The plates were incubated overnight and absorbance was recorded. All the tests were conducted in triplicate.

In the next data set the test system is E. coli and S. aureus. The data set is described as follows: Salt tolerance (MICs under 0-150 mM NaCl, summary). The data set is classed as cell-based, Escherichia coli; Staphylococcus aureus. Set-up: key: Up to 50 mM: no effects on antibacterial activity up to 50 mM NaCl but increase in the MICs for E. coli and S. aureus at 100 mM NaCl; Intolerant: not resistant to salt effects even at 50 mM NaCl; Up to 150 mM: no effects on antibacterial activity up to 150 mM NaCl. To be noted: MICs for E. coli and S. aureus in MHB with 0, 50, 100 or 150 mM NaCl. How it is done: as §1

Data set [1] concerns porcine trypsin and proteinase K. The experiment in a line: Proteases stability assay. In kind it is in vitro ADME, porcine; Tritirachium album. As to conditions: 1000 µg peptide with 50 µg protease (20:1 w/w), porcine trypsin or proteinase K, PBS pH 7.4, 37 °C, 3 h; read-out activity of supernatant on E. coli and S. aureus; triplicate. How it is done:
The effect of two well-studied proteases, porcine trypsin and proteinase K from Tritirachium album, on the activity of peptides was investigated as per Carmona et al.. Briefly, 1000 µg of a peptide was incubated with 50 µg of a protease (20:1 w/w) at 37 °C for 3 h in phosphate buffered saline PBS (pH 7.4). The enzyme activity was then terminated by heating (70 °C, 5 min) and the samples centrifuged at 12,000× g. The activity of the supernatant on E. coli and S. aureus was tested as above, in triplicate.

Data set [2] has as its system pBlueScript SK+ plasmid DNA. The experiment in a line: In vitro DNA-binding assay (gel retardation). To be noted: 100 ng pBlueScript SK+, peptide 8-500 µg/mL, 1 h room temperature, 1% agarose. On the procedure:
The ability of peptides to bind to purified DNA (indicative of in vivo DNA binding potential) was tested by the modified gel retardation assay developed by Alfred et al.. The DNA of pBlueScript SK+ (100 ng) was incubated with peptides (to final concentrations of 8, 16, 32, 64, 125, 250 or 500 µg/mL) in 15 µL volumes made with sterile MilliQ water, the held at room temperature for 1h. Loading dye was added to each sample and the samples electrophoresed on 1% agarose gels. The gels were then immersed in ethidium bromide ([…]) then visualized and imaged

The next data set has as its system NIH-3T3 cells. The experiment in a line: Cytotoxicity, MTT assay. To be noted: 24 h. In kind it is cell-based, mouse. How it is done:
(§2) Cytotoxicity to human cervical carcinoma HeLa cells and mouse fibroblastic NIH-3T3 cells was determined using the MTT assay as per Scudiero et al. with minor modifications. The cells were maintained in Dulbecco’s Modified Eagle Medium (DMEM) with 10% foetal bovine serum (FBS) and 1% penicillin G in a humidified incubator (Heraeus Hera Cell incubator) at 37 °C with 5% CO2. They were seeded in 96-well microtiter plates at 1 × 10^4 cells/well and allowed to adhere for 24 h in the incubator. The medium was removed, and adherent cells were washed with PBS. Fresh media containing serially diluted peptides in PBS (final concentrations 4 to 250 µg/mL) were added and the cells incubated for 24 h. Cells without peptides were used as negative controls. Following incubations, the medium was removed, and adherent cells were washed with PBS. 150 µL of MTT (diluted to 0.33 mg/mL in DMEM) and the plates incubated for 3 h. The precipitated formazan was dissolved in 100 µL of DMSO and its absorbance measured at 570 nm. Cell viability was determined as: (OD570 nm peptide treated cells/(OD570 nm untreated cells) × 100. Positive cytotoxicity was defined as peptide concentration that causes 50% growth inhibition in a cell line (IC50). All tests were carried out in triplicate.
A general note: Tetrazolium assays rely on reduction of a dye to a coloured formazan, in cell work by metabolically active cells.

The next data set relates to HeLa cells. The data set is classed as cell-based, human. To be noted: MTT, 24 h, peptide up to 250 µg/mL; concentration causing 50% cell growth inhibition; mean of triplicate assays. How it is done: as §2
The mark [3] stands for this setting: 37 °C overnight, A595, mode of three independent experiments.

On to WRWWKWWK-NH2 [Peptide W8], for which the “MIC E. coli, No NaCl” value in the data set with E. coli ATCC25922 (0 mM NaCl, triplicate, mode) is 4 µg/mL. Further, the “MIC E. coli, With 50mM NaCl” value against E. coli ATCC25922 (50 mM NaCl, triplicate, mode) stood at 4 µg/mL. The “MIC E. coli, With 100mM NaCl” value with E. coli ATCC25922 (100 mM NaCl, triplicate, mode) amounted to 4 µg/mL. The “MIC E. coli, With 150mM NaCl” value in the data set with E. coli ATCC25922 (150 mM NaCl, triplicate, mode) came to 4 µg/mL. The “MIC E. coli ATCC25922” value in the data set on E. coli ATCC25922 (setting [3]) came out at 4 µg/mL. In addition, the “MIC S. aureus, No NaCl” value in the data set with S. aureus ATCC25923 (0 mM NaCl, triplicate, mode) was found to be 8 µg/mL. The “MIC S. aureus, With 50mM NaCl” value in the data set on S. aureus ATCC25923 (50 mM NaCl, triplicate, mode) came to 8 µg/mL. Moreover, the “MIC S. aureus, With 100mM NaCl” value in the data set with S. aureus ATCC25923 (100 mM NaCl, triplicate, mode) was determined as 8 µg/mL. Besides, the “MIC S. aureus, With 150mM NaCl” value in the data set on S. aureus ATCC25923 (150 mM NaCl, triplicate, mode) amounted to 8 µg/mL. In addition, the “MIC S. aureus ATCC25923” value against S. aureus ATCC25923 (setting [3]) stood at 8 µg/mL. In the data set on P. aeruginosa ATCC9027, the “MIC P. aeruginosa ATCC9027” value turned out to be 32 µg/mL. Moreover, in the data set on C. albicans FRR 5580, the “MIC C. albicans FRR 5580” value came to 64 µg/mL. In addition, the “Salt Tolerance” value with E. coli and S. aureus was “Up to 150 mM”. In addition, the “Protease Stability” value in data set [1] is reported as “Unstable”. In addition, in [2], the “Binding to DNA in vitro (concentration inhibiting plasmid migration)” value was ≥ 16 µg/mL. Further, the “IC50 NIH-3T3” value in the data set on NIH-3T3 cells (peptide up to 250 µg/mL, concentration causing 50% cell growth inhibition, mean of triplicate assays) is >250 µg/mL. Also, the “Cytotoxicity to NIH-3T3 mouse fibroblasts (in words)” value with NIH-3T3 cells (up to 250 µg/mL) is given as “no cytotoxicity”. Further, the “IC50 HeLa” value in the data set on HeLa cells turned out to be 250 µg/mL.
